Assay results as given in patent US20220304950A1, “[…] THE TREATMENT OF PATIENTS WITH MAJOR DEPRESSIVE DISORDER, INCLUDING SUICIDALITY” (JANSSEN PHARMACEUTICALS, INC., priority 2019, published 2022).

What was measured:
Format in all cases: in vivo, human
[1] = test system: adult patients with MDD assessed to be at imminent risk for suicide; assay: MADRS total score, Study 1 (Example 4); conditions: for MADRS total score change, Diff. of LS Means (SE) vs placebo + SOC: ANCOVA LOCF; for MADRS total score change, LS mean difference Testing-Reference (MMRM): Esk 84 mg + SOC minus placebo + SOC; for MADRS total score, change from baseline to Day 2 (LOCF), mean (SD): negative = improvement
Excerpt: The primary efficacy evaluation will be the MADRS total score. The MADRS will be performed using the Structured Interview Guide for the Montgomery Asberg Depression Rating Scale. The MADRS is a clinician-rated scale designed to be used in subjects with MDD to measure depression severity and detect changes due to antidepressant treatment. The test consists of 10 items, each of which is scored from 0 (item not present or normal) to 6 (severe or continuous presence of the symptoms), for a total possible score of 60. Higher scores represent a more severe condition. The MADRS evaluates apparent sadness, reported sadness, inner tension, sleep, appetite, concentration, lassitude, interest level, pessimistic thoughts, and suicidal thoughts.
The typical recall period for the MADRS is 7 days. In this study, the MADRS will also be administered using a since last assessment recall, a 4-hour recall on Day 1 and Day 25 postdose, and a 24-hour recall on Day 2. For the MADRS performed at 4 hours postdose on Days 1 and 25, the MADRS scores for the sleep item recorded predose on the same day will be carried forward.
The primary efficacy analyses are based on the full efficacy analysis set which is defined as all randomized subjects who received at least 1 dose of double-blind study medication and have both a baseline and a post-baseline evaluation for the Montgomery Xsberg Depression Rating Scale (MADRS) total score or Clinical Global Impression-Severity of Suicidality-Revised (CGI-SS-R).
MADRS consists of 10 items that cover all of the core depressive symptoms: each item is scored from 0 (symptom is not present or is normal) to 6 (severe or continuous presence of the symptom). A total score (0 to 60) is calculated by summing the scores of all 10 items. A higher score represents a more severe condition.

[2] = test system: adult patients with MDD assessed to be at imminent risk for suicide; assay: MADRS subgroup analysis by prior suicide attempt, pooled Examples 4 and 5; conditions: 24 hours after the first dose
Experimental: FIG. 11 is a forest plot for the MADRS at 24 hours post first dose: subgroup analyses pooled analysis for Examples 4 and 5.
In certain aspects, the disclosure relates to methods for reducing symptoms of major depressive disorder, including suicidality, in a human patient assessed to be at imminent risk for suicide comprising the administration of esketamine in addition to standard of care treatment. As reflected in the reported data, for depressive symptoms, the treatment differences favored the administration of esketamine plus standard of care treatment over standard of care treatment alone. In addition, treatment differences between patients that previously attempted suicide (attempters) and those that had not (non-attempters) were also present (see, e.g., data reflected in FIGS. 9-17). […] Improvement in this population is of clinical relevance considering that prior suicide attempt has been identified as the single most important predictor/risk factor for suicide in subjects with MDD.

[3] = test system: adult patients with MDD assessed to be at imminent risk for suicide; assay: Adverse events (TEAEs, SAEs), Study 2 (Example 5)
Experimental: The primary objective is to compare the efficacy of ESK+SOC to that of PBO+SOC in reducing the symptoms of MDD, including suicidal ideation, as measured by the change from baseline on the MADRS total score at 24 hours post-first dose.

[4] = test system: adult patients with MDD assessed to be at imminent risk for suicide; assay: CGI-SS-R (SIBAT), Study 1 (Example 4); conditions: 24 hours post first dose; for CGI-SS-R change, Hodges-Lehmann Est. of Treatment Diff. (95% CI): Esk 84 mg + SOC vs placebo + SOC
Excerpt: (§1) The SIBAT is a suicide assessment tool that captures suicidal ideation and behavior(s) as reported by patients and reviewed by clinicians permitting efficient collection and documentation of clinical impression of severity of suicidality and imminent and long-term suicide risk and treatment plans.
(§2) The CGI-SS-R rating is scored on a 7-point scale from 0 (normal, not at all suicidal) to 6 (among the most extremely suicidal patients) and will be based on the totality of information available to the clinician, including information from the SIBAT. The CGI-SS-R summarizes the clinician's overall impression of severity of suicidality and will be used to assess the key secondary endpoint in this study. This rating operates like numerous other CGI-severity scales that have been used in other psychiatric studies. These instruments have shown clinical validity and sensitivity to change.
Change in CGI-SS-R from baseline to 24 hours post first dose (Day 2). The CGI-SS-R, derived from the Suicidal Ideation and Behavior Assessment Tool (SIBAT) rating is scored on a 7-point scale from 0 (normal, not at all suicidal) to 6 (among the most extremely suicidal patients).

[5] = test system: adult patients with MDD assessed to be at imminent risk for suicide; assay: CGI-SS-R (SIBAT), Study 2 (Example 5); conditions: 24 hours post first dose
Excerpt: as §1, §2
Key secondary efficacy variable: Change in CGI-SS-R from baseline to 24 hours post first dose (Day 2). The CGI-SS-R, derived from the Suicidal Ideation and Behavior Assessment Tool (SIBAT) rating is scored on a 7-point scale from 0 (normal, not at all suicidal) to 6 (among the most extremely suicidal patients).

[6] = Esk 84 mg + SOC, 24 hours post first dose
[7] = Esk 84 mg + SOC, 24 hours post first dose, full efficacy analysis set
[8] = esketamine 84 mg+SOC, double-blind phase
[9] = esketamine 84 mg+SOC, safety set

Compound: CN[C@]1(c2ccccc2Cl)CCCCC1=O [esketamine, (S)-2-(2-chlorophenyl)-2-(methylamino)cyclohexanone]
- Effect size for the primary endpoint (MADRS) ([1]; 24 hours post first dose): 0.34
- MADRS total score change, Diff. of LS Means (SE) vs placebo + SOC ([1]; 24 hours post first dose): −3.8 (1.39)
- MADRS total score change, Diff. of LS Means (SE) vs placebo + SOC ([1]; 24 hours post first dose, listed as Esk): −3.8
- MADRS total score, mean change from baseline (SD) ([1]; ESK+SOC): −16.4 (11.95)
- MADRS total score change, LS mean difference Testing-Reference (MMRM) ([1]; Day 1 (DB): 4 H): −2.6
- MADRS total score change, LS mean difference Testing-Reference (MMRM) ([1]; Day 2 (DB)): −3.7
- MADRS total score change, LS mean difference Testing-Reference (MMRM) ([1]; Day 4 (DB)): −4.6
- MADRS total score change, LS mean difference Testing-Reference (MMRM) ([1]; Day 8 (DB)): −2.5
- MADRS total score change, LS mean difference Testing-Reference (MMRM) ([1]; Day 11 (DB)): −2.8
- MADRS total score change, LS mean difference Testing-Reference (MMRM) ([1]; Day 15 (DB)): −1.5
- MADRS total score change, LS mean difference Testing-Reference (MMRM) ([1]; Day 18 (DB)): −2.3
- MADRS total score change, LS mean difference Testing-Reference (MMRM) ([1]; Day 22 (DB)): −3.2
- MADRS total score change, LS mean difference Testing-Reference (MMRM) ([1]; Day 25 (DB): 4 H): −4.1
- MADRS total score change, LS mean difference Testing-Reference (MMRM) ([1]; Day 25 (DB): predose): −2.6
- MADRS total score, change from baseline to Day 2 (LOCF), median [1, 6]: −15.0
- MADRS total score, Day 2 (DB) LOCF, mean [1, 7]: 24.7
- MADRS total score, Day 2 (DB) LOCF, median [1, 7]: 26.0
- MADRS total score, change from baseline to Day 2 (LOCF), mean (SD) [1, 6]: −16.4 (11.95)
- MADRS total score, change from baseline to Day 2 (LOCF), mean (SD) ([1]; Esk 84 mg + SOC, 24 hours post first dose, listed as Esk): −16.4
- MADRS total score change from baseline, LS mean (MMRM observed case) ([1]; Esk 84 mg + SOC, Day 1 (DB): 4 H): −12.8
- MADRS total score change from baseline, LS mean (MMRM observed case) ([1]; Esk 84 mg + SOC, Day 2 (DB)): −15.7
- MADRS total score change from baseline, LS mean (MMRM observed case) ([1]; Esk 84 mg + SOC, Day 4 (DB)): −18.3
- MADRS total score change from baseline, LS mean (MMRM observed case) ([1]; Esk 84 mg + SOC, Day 8 (DB)): −19.0
- MADRS total score change from baseline, LS mean (MMRM observed case) ([1]; Esk 84 mg + SOC, Day 11 (DB)): −20.8
- MADRS total score change from baseline, LS mean (MMRM observed case) ([1]; Esk 84 mg + SOC, Day 15 (DB)): −21.6
- MADRS total score change from baseline, LS mean (MMRM observed case) ([1]; Esk 84 mg + SOC, Day 18 (DB)): −23.1
- MADRS total score change from baseline, LS mean (MMRM observed case) ([1]; Esk 84 mg + SOC, Day 22 (DB)): −23.5
- MADRS total score change from baseline, LS mean (MMRM observed case) ([1]; Esk 84 mg + SOC, Day 25 (DB): 4 H): −28.8
- MADRS total score change from baseline, LS mean (MMRM observed case) ([1]; Esk 84 mg + SOC, Day 25 (DB): predose): −24.3
- Estimated difference (95% CI) vs placebo+SOC in change in MADRS total score ([2]; subpopulation with prior suicide attempt (FIG. 11)): −4.81 (−7.26; −2.36)
- Estimated difference (95% CI) vs placebo+SOC in change in MADRS total score ([2]; subpopulation without prior suicide attempt (FIG. 11)): −2.32 (−5.54; 0.91)
- Deaths during the study [3]: no deaths
- Psychiatric SAEs related to suicidal ideation, suicide attempt, or worsening of depression, participants ([3]; ESK+SOC, 9-week follow-up phase): 9
- SAE depersonalization/derealization disorder, participants ([3]; ESK+SOC, double-blind phase): 1
- SAE suicidal ideation, participants ([3]; ESK+SOC, double-blind phase): 1
- SAEs: suicide attempts, number ([3]; ESK+SOC, double-blind phase): 3
- SAE acute stress disorder, participants ([3]; ESK+SOC, follow-up phase): 1
- SAE depression-related event, participants ([3]; ESK+SOC, follow-up phase): 1
- SAE hemothorax, participants ([3]; ESK+SOC, follow-up phase): 1
- SAEs: suicidal ideation-related events, number ([3]; ESK+SOC, follow-up phase): 3
- SAEs: suicide attempts, number ([3]; ESK+SOC, follow-up phase): 4
- Events in ESK+SOC participants considered related to study medication, number ([3]; ESK+SOC, kind of event not given): 17
- Psychiatric SAEs related to suicidal ideation, suicide attempt, or worsening of depression, frequency ([3]; double-blind phase): < 5%
- Subjects with at least one TEAE, % [3, 8]: 91.2%
- Subjects with serious TEAEs, % [3, 8]: 4.4%
- TEAE Dissociation, subjects % [3, 8]: 38.6%
- TEAE Dizziness, subjects % [3, 8]: 41.2%
- TEAE Nausea, subjects % [3, 8]: 33.3%
- TEAE dysgeusia, subjects % [3, 8]: 25.4%
- TEAE headache, subjects % [3, 8]: 21.9%
- TEAE paraesthesia, subjects % [3, 8]: 20.2%
- TEAE somnolence, subjects % [3, 8]: 22.8%
- Subjects with serious AEs, % ([3]; esketamine 84 mg+SOC, follow-up phase): 10.1%
- Study medication permanently stopped due to an adverse event, subjects % [3, 9]: 7.9%
- Study medication permanently stopped due to an adverse event, subjects n [3, 9]: 9
- Overall safety and tolerability (in words) ([3]; intranasal ESK+SOC): safe and tolerated
- CGI-SS-R change, Hodges-Lehmann Est. of Treatment Diff. (95% CI) [4]: 0.0 (−1.00; 0.00)
- CGI-SS-R change, Hodges-Lehmann Est. of Treatment Diff. (95% CI) ([4]; listed as Esk): 0.0
- CGI-SS-R score, Day 2 (DB) LOCF, median ([4]; Esk 84 mg + SOC): 2.0
- CGI-SS-R score, change from baseline to Day 2 (LOCF), median (range) ([4]; Esk 84 mg + SOC): −1.0 (−6; 2)
- CGI-SS-R score, change from baseline to Day 2 (LOCF), median (range) ([4]; Esk 84 mg + SOC, listed as Esk): −1.0
- CGI-SS-R change, Hodges-Lehmann estimate (95% CI) of the difference vs placebo+SOC [5]: 0.0 (0.00; 0.00)
- CGI-SS-R, change from baseline to Day 2 (LOCF), median (range) ([5]; esketamine 84 mg+SOC): −1.0 (−6; 2)
